From PubChem BioAssay (NCI)
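Each compound was tested at five concentrations against cells in 96-well plates for 48 hours. Abbreviation: GI50, concentration required for 50% inhibition of growth. TGI: concentration producing complete growth inhibition.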

Assays:
Assay in all cases: growth of human tumour cells (NCI), 48 h
786-0 renal = tested on: 786-0 renal
ACHN renal = tested on: ACHN renal
HCT-15 colon = tested on: HCT-15 colon
HL-60(TB) leukemia = tested on: HL-60(TB) leukemia
LOX IMVI melanoma = tested on: LOX IMVI melanoma
NCI-H522 lung = tested on: NCI-H522 lung
OVCAR-3 ovarian = tested on: OVCAR-3 ovarian
OVCAR-4 ovarian = tested on: OVCAR-4 ovarian
SW-620 colon = tested on: SW-620 colon
UACC-62 melanoma = tested on: UACC-62 melanoma

O=C(CSc1ncn[nH]1)C[P+](c1ccccc1)(c1ccccc1)c1ccccc1
TGI (786-0 renal): > 100 µM
TGI (ACHN renal): > 100 µM
TGI (HCT-15 colon): > 100 µM
TGI (HL-60(TB) leukemia): > 100 µM
TGI (LOX IMVI melanoma): > 100 µM
TGI (NCI-H522 lung): 43.2 µM
TGI (OVCAR-3 ovarian): > 100 µM
TGI (OVCAR-4 ovarian): > 100 µM
TGI (SW-620 colon): > 100 µM
TGI (UACC-62 melanoma): > 100 µM

Cc1cc(Nc2nc(-c3cccnc3)nc3ccccc23)n[nH]1
GI50 (786-0 renal): 1.31 µM
TGI (786-0 renal): > 100 µM
GI50 (ACHN renal): 0.527 µM
TGI (ACHN renal): > 100 µM
GI50 (HCT-15 colon): 0.512 µM
TGI (HCT-15 colon): > 100 µM
GI50 (HL-60(TB) leukemia): 3.27 µM
TGI (HL-60(TB) leukemia): 49 µM
GI50 (LOX IMVI melanoma): 0.712 µM
TGI (LOX IMVI melanoma): 3.57 µM
GI50 (NCI-H522 lung): 1.69 µM
TGI (NCI-H522 lung): > 100 µM
GI50 (OVCAR-3 ovarian): 3.74 µM
TGI (OVCAR-3 ovarian): > 100 µM
GI50 (OVCAR-4 ovarian): 2.05 µM
TGI (OVCAR-4 ovarian): > 100 µM
GI50 (SW-620 colon): 1.09 µM
TGI (SW-620 colon): > 100 µM
GI50 (UACC-62 melanoma): 0.943 µM
TGI (UACC-62 melanoma): 35.6 µM

Nc1cc(O)ccc1N=Nc1ccc(-c2nc3ccccc3[nH]2)cc1
GI50 (786-0 renal): 77.2 µM
TGI (786-0 renal): > 100 µM
GI50 (ACHN renal): 34 µM
TGI (ACHN renal): > 100 µM
GI50 (HCT-15 colon): 37.2 µM
TGI (HCT-15 colon): > 100 µM
GI50 (HL-60(TB) leukemia): 44.6 µM
TGI (HL-60(TB) leukemia): > 100 µM
GI50 (LOX IMVI melanoma): 7.6 µM
TGI (LOX IMVI melanoma): 37.1 µM
GI50 (NCI-H522 lung): 34.2 µM
TGI (NCI-H522 lung): > 100 µM
GI50 (OVCAR-3 ovarian): 13.7 µM
TGI (OVCAR-3 ovarian): 49.6 µM
GI50 (OVCAR-4 ovarian): > 100 µM
TGI (OVCAR-4 ovarian): > 100 µM
GI50 (SW-620 colon): 52.9 µM
TGI (SW-620 colon): > 100 µM
GI50 (UACC-62 melanoma): 17.1 µM
TGI (UACC-62 melanoma): > 100 µM

Cc1ccc(C(NC(=O)c2ccccc2)c2ccc3cccnc3c2O)cc1 (centres undefined)
GI50 (786-0 renal): 0.301 µM
TGI (786-0 renal): 1.81 µM
GI50 (ACHN renal): 0.285 µM
TGI (ACHN renal): 15.4 µM
GI50 (HCT-15 colon): 0.24 µM
TGI (HCT-15 colon): > 91.2 µM
GI50 (HL-60(TB) leukemia): 0.288 µM
TGI (HL-60(TB) leukemia): 1 µM
GI50 (LOX IMVI melanoma): 0.15 µM
GI50 (NCI-H522 lung): 0.31 µM
TGI (NCI-H522 lung): 2.74 µM
GI50 (OVCAR-3 ovarian): 0.351 µM
TGI (OVCAR-3 ovarian): 18.2 µM
GI50 (OVCAR-4 ovarian): 0.275 µM
TGI (OVCAR-4 ovarian): > 52 µM
GI50 (SW-620 colon): 0.431 µM
TGI (SW-620 colon): > 43.5 µM
GI50 (UACC-62 melanoma): 0.236 µM
TGI (UACC-62 melanoma): 0.763 µM

COC(=O)C1OC2(CCCC3CC32)O[C@H]1C(=O)OC (some centres undefined)
TGI (786-0 renal): > 100 µM
TGI (ACHN renal): > 100 µM
TGI (HCT-15 colon): > 100 µM
TGI (HL-60(TB) leukemia): > 100 µM
TGI (LOX IMVI melanoma): > 100 µM
TGI (NCI-H522 lung): > 100 µM
TGI (OVCAR-3 ovarian): > 100 µM
TGI (OVCAR-4 ovarian): > 100 µM
TGI (SW-620 colon): > 100 µM
TGI (UACC-62 melanoma): > 100 µM

Cc1ccc(NC(=O)C2C(=O)N(c3ccc(C)c(C)c3)C(=O)/C2=N\NC(N)=O)cc1C (centres undefined)
TGI (786-0 renal): > 100 µM
TGI (ACHN renal): > 100 µM
TGI (HCT-15 colon): > 100 µM
TGI (HL-60(TB) leukemia): > 100 µM
TGI (LOX IMVI melanoma): > 100 µM
TGI (NCI-H522 lung): > 100 µM
TGI (OVCAR-3 ovarian): > 100 µM
TGI (OVCAR-4 ovarian): > 100 µM
TGI (SW-620 colon): > 100 µM
TGI (UACC-62 melanoma): > 100 µM

CCOc1ccc2c(c1)[n+]([O-])c(-c1ccc(Br)cc1)c(N)[n+]2[O-]
TGI (786-0 renal): > 100 µM
TGI (ACHN renal): > 100 µM
TGI (HCT-15 colon): > 100 µM
TGI (HL-60(TB) leukemia): > 100 µM
TGI (LOX IMVI melanoma): > 100 µM
TGI (NCI-H522 lung): 33.7 µM
TGI (OVCAR-3 ovarian): > 100 µM
TGI (OVCAR-4 ovarian): > 100 µM
TGI (SW-620 colon): > 100 µM
TGI (UACC-62 melanoma): > 100 µM

Nc1c(O)cc(N=C2C(=O)C=CC=C2C(=O)O)c(O)c1C(=O)O
TGI (786-0 renal): > 100 µM
TGI (ACHN renal): > 100 µM
TGI (HCT-15 colon): > 100 µM
TGI (HL-60(TB) leukemia): > 100 µM
TGI (LOX IMVI melanoma): > 100 µM
TGI (NCI-H522 lung): > 100 µM
TGI (OVCAR-3 ovarian): > 100 µM
TGI (OVCAR-4 ovarian): > 100 µM
TGI (SW-620 colon): > 100 µM
TGI (UACC-62 melanoma): > 100 µM

CN(COC(=O)c1ccccc1)c1nc(N(C)COC(=O)c2ccccc2)nc(N(C)COC(=O)c2ccccc2)n1
TGI (786-0 renal): 46.5 µM
TGI (ACHN renal): 78.7 µM
TGI (HCT-15 colon): > 100 µM
TGI (HL-60(TB) leukemia): > 100 µM
TGI (LOX IMVI melanoma): > 100 µM
TGI (NCI-H522 lung): > 100 µM
TGI (OVCAR-3 ovarian): > 100 µM
TGI (OVCAR-4 ovarian): > 100 µM
TGI (SW-620 colon): > 100 µM
TGI (UACC-62 melanoma): > 100 µM

Cc1cccc(C(C)C)c1N1C(=O)C(=O)C(c2nc3ccccc3o2)C(=O)C1=O
TGI (786-0 renal): > 100 µM
TGI (ACHN renal): > 100 µM
TGI (HCT-15 colon): > 100 µM
TGI (HL-60(TB) leukemia): 80.9 µM
TGI (LOX IMVI melanoma): > 100 µM
TGI (NCI-H522 lung): 89.5 µM
TGI (OVCAR-3 ovarian): > 100 µM
TGI (OVCAR-4 ovarian): > 100 µM
TGI (SW-620 colon): > 100 µM
TGI (UACC-62 melanoma): > 100 µM

COc1ccc(C(c2ccc(OCCN(C)C)cc2)c2cc3ccccc3c3ccccc23)cc1 (centres undefined)
GI50 (786-0 renal): 1.51 µM
TGI (786-0 renal): 2.91 µM
GI50 (ACHN renal): 1.7 µM
TGI (ACHN renal): 3.13 µM
GI50 (HCT-15 colon): 1.28 µM
TGI (HCT-15 colon): 2.69 µM
GI50 (HL-60(TB) leukemia): 1.89 µM
TGI (HL-60(TB) leukemia): 3.75 µM
GI50 (LOX IMVI melanoma): 1.64 µM
TGI (LOX IMVI melanoma): 3.06 µM
GI50 (NCI-H522 lung): 1.55 µM
TGI (NCI-H522 lung): 2.98 µM
GI50 (OVCAR-3 ovarian): 1.66 µM
TGI (OVCAR-3 ovarian): 3.07 µM
GI50 (OVCAR-4 ovarian): 1.78 µM
TGI (OVCAR-4 ovarian): 3.39 µM
GI50 (SW-620 colon): 1.69 µM
TGI (SW-620 colon): 3.31 µM
GI50 (UACC-62 melanoma): 1.81 µM
TGI (UACC-62 melanoma): 3.52 µM
